Laboratory results from the supplement of paper PMC10307832.

Assays:
Assay in all cases: relative viability (nuclei count vs DMSO), 5 days (fraction); higher = more cells survive
[1] = compound: CC[C@@H]1C(=O)N(C)c2cnc(Nc3ccc(C(=O)NC4CCN(C)CC4)cc3OC)nc2N1C1CCCC1 [BI-2536] + CCNC(=O)c1noc(-c2cc(C(C)C)c(O)cc2O)c1-c1ccc(CN2CCOCC2)cc1 [Luminespib] (partner 0.01 µM)
In short: (§1)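 Medians of duplicate plates are given as relative viability. That measure is the nuclei count in treated wells divided by the count in vehicle wells. Counts were taken on 4× images of lung cancer cell lines in 1536-well plates, 5 days after pin-tool dosing the day after seeding with one drug alone or a fixed anchor-drug dose plus five library-drug doses (not always all listed) in √10 steps.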

[2] = compound: CC[C@@H]1C(=O)N(C)c2cnc(Nc3ccc(C(=O)NC4CCN(C)CC4)cc3OC)nc2N1C1CCCC1 [BI-2536] + NC(=O)Nc1cc(-c2cccc(F)c2)sc1C(=O)N[C@H]1CCCNC1 [AZD7762] (partner 0.2 µM)
In short: as §1

[3] = compound: CC[C@@H]1C(=O)N(C)c2cnc(Nc3ccc(C(=O)NC4CCN(C)CC4)cc3OC)nc2N1C1CCCC1 [BI-2536] + CS(=O)(=O)CCNCc1ccc(-c2ccc3ncnc(Nc4ccc(OCc5cccc(F)c5)c(Cl)c4)c3c2)o1 [Lapatinib] (partner 2 µM)
In short: as §1

[4] = compound: CC1CC(=O)N(C2=CN=C(N=C2N1C3CCCC3)NC4=C(C=C(C=C4)C(=O)NC5CCN(CC5)C)OC)C [NPK76-II-72-1] + COc1cccc2cc(-c3nc([C@H]4CC[C@H](C(=O)O)CC4)n4ncnc(N)c34)[nH]c12 [OSI-027] (partner 0.5 µM)
In short: as §1

NCI-H460
relative viability ([1]; first compound 0.01 µM): 0.0287
relative viability ([1]; first compound 0.03162 µM): 0.0394
relative viability ([1]; first compound 0.1 µM): 0.0295
relative viability ([1]; first compound 0.3162 µM): 0.0298
relative viability ([1]; first compound 1 µM): 0.0252
relative viability ([2]; first compound 0.01 µM): 0.724
relative viability ([2]; first compound 0.03162 µM): 0.649
relative viability ([2]; first compound 0.1 µM): 0.473
relative viability ([2]; first compound 0.3162 µM): 0.0346
relative viability ([2]; first compound 1 µM): 0.0318
relative viability ([3]; first compound 0.01 µM): 1.04
relative viability ([3]; first compound 0.03162 µM): 0.257
relative viability ([3]; first compound 0.1 µM): 0.206
relative viability ([3]; first compound 0.3162 µM): 0.0105
relative viability ([3]; first compound 1 µM): 0.011
relative viability ([4]; first compound 0.01 µM): 0.706
relative viability ([4]; first compound 0.03162 µM): 0.79
relative viability ([4]; first compound 0.1 µM): 0.75
relative viability ([4]; first compound 0.3162 µM): 0.628
relative viability ([4]; first compound 1 µM): 0.775

NCI-H1944
relative viability ([1]; first compound 0.01 µM): 0.694
relative viability ([1]; first compound 0.03162 µM): 0.794
relative viability ([1]; first compound 0.1 µM): 0.863
relative viability ([1]; first compound 0.3162 µM): 0.107
relative viability ([1]; first compound 1 µM): 0.136
relative viability ([2]; first compound 0.01 µM): 0.476
relative viability ([2]; first compound 0.03162 µM): 0.611
relative viability ([2]; first compound 0.1 µM): 0.269
relative viability ([2]; first compound 0.3162 µM): 0.12
relative viability ([2]; first compound 1 µM): 0.13
relative viability ([3]; first compound 0.01 µM): 0.848
relative viability ([3]; first compound 0.03162 µM): 0.832
relative viability ([3]; first compound 0.1 µM): 0.754
relative viability ([3]; first compound 0.3162 µM): 0.678
relative viability ([3]; first compound 1 µM): 0.161
relative viability ([4]; first compound 0.01 µM): 0.422
relative viability ([4]; first compound 0.03162 µM): 0.44
relative viability ([4]; first compound 0.1 µM): 0.364
relative viability ([4]; first compound 0.3162 µM): 0.369
relative viability ([4]; first compound 1 µM): 0.541

201T
relative viability ([1]; first compound 0.01 µM): 1.02
relative viability ([1]; first compound 0.03162 µM): 0.999
relative viability ([1]; first compound 0.1 µM): 1.05
relative viability ([1]; first compound 0.3162 µM): 0.349
relative viability ([1]; first compound 1 µM): 0.318
relative viability ([2]; first compound 0.01 µM): 0.609
relative viability ([2]; first compound 0.03162 µM): 0.647
relative viability ([2]; first compound 0.1 µM): 0.588
relative viability ([2]; first compound 0.3162 µM): 0.33
relative viability ([2]; first compound 1 µM): 0.255
relative viability ([3]; first compound 0.01 µM): 0.946
relative viability ([3]; first compound 0.03162 µM): 1.03
relative viability ([3]; first compound 0.1 µM): 1.03
relative viability ([3]; first compound 0.3162 µM): 1.04
relative viability ([3]; first compound 1 µM): 0.38
relative viability ([4]; first compound 0.01 µM): 0.65
relative viability ([4]; first compound 0.03162 µM): 0.677
relative viability ([4]; first compound 0.1 µM): 0.703
relative viability ([4]; first compound 0.3162 µM): 0.673
relative viability ([4]; first compound 1 µM): 0.474

NCI-H23
relative viability ([1]; first compound 0.01 µM): 0.231
relative viability ([1]; first compound 0.03162 µM): 0.212
relative viability ([1]; first compound 0.1 µM): 0.182
relative viability ([1]; first compound 0.3162 µM): 0.225
relative viability ([1]; first compound 1 µM): 0.236
relative viability ([2]; first compound 0.01 µM): 0.236
relative viability ([2]; first compound 0.03162 µM): 0.236
relative viability ([2]; first compound 0.1 µM): 0.127
relative viability ([2]; first compound 0.3162 µM): 0.12
relative viability ([2]; first compound 1 µM): 0.088
relative viability ([3]; first compound 0.01 µM): 1.07
relative viability ([3]; first compound 0.03162 µM): 0.773
relative viability ([3]; first compound 0.1 µM): 0.168
relative viability ([3]; first compound 0.3162 µM): 0.171
relative viability ([3]; first compound 1 µM): 0.147
relative viability ([4]; first compound 0.01 µM): 0.649
relative viability ([4]; first compound 0.03162 µM): 0.649
relative viability ([4]; first compound 0.1 µM): 0.568
relative viability ([4]; first compound 0.3162 µM): 0.585
relative viability ([4]; first compound 1 µM): 0.71

LOU-NH91
relative viability ([1]; first compound 0.01 µM): 0.372
relative viability ([1]; first compound 0.03162 µM): 0.345
relative viability ([1]; first compound 0.1 µM): 0.306
relative viability ([1]; first compound 0.3162 µM): 0.279
relative viability ([1]; first compound 1 µM): 0.267
relative viability ([2]; first compound 0.01 µM): 0.722
relative viability ([2]; first compound 0.03162 µM): 0.76
relative viability ([2]; first compound 0.1 µM): 0.42
relative viability ([2]; first compound 0.3162 µM): 0.316
relative viability ([2]; first compound 1 µM): 0.329
relative viability ([3]; first compound 0.01 µM): 0.794
relative viability ([3]; first compound 0.03162 µM): 0.756
relative viability ([3]; first compound 0.1 µM): 0.663
relative viability ([3]; first compound 0.3162 µM): 0.284
relative viability ([3]; first compound 1 µM): 0.291
relative viability ([4]; first compound 0.01 µM): 0.667
relative viability ([4]; first compound 0.03162 µM): 0.704
relative viability ([4]; first compound 0.1 µM): 0.713
relative viability ([4]; first compound 0.3162 µM): 0.654
relative viability ([4]; first compound 1 µM): 0.813

NCI-H2085
relative viability ([1]; first compound 0.01 µM): 0.396
relative viability ([1]; first compound 0.03162 µM): 0.5
relative viability ([1]; first compound 0.1 µM): 0.384
relative viability ([1]; first compound 0.3162 µM): 0.29
relative viability ([1]; first compound 1 µM): 0.262
relative viability ([2]; first compound 0.01 µM): 1.03
relative viability ([2]; first compound 0.03162 µM): 0.963
relative viability ([2]; first compound 0.1 µM): 0.737
relative viability ([2]; first compound 0.3162 µM): 0.217
relative viability ([2]; first compound 1 µM): 0.27
relative viability ([3]; first compound 0.01 µM): 0.781
relative viability ([3]; first compound 0.03162 µM): 0.71
relative viability ([3]; first compound 0.1 µM): 0.427
relative viability ([3]; first compound 0.3162 µM): 0.252
relative viability ([3]; first compound 1 µM): 0.324
relative viability ([4]; first compound 0.01 µM): 0.577
relative viability ([4]; first compound 0.03162 µM): 0.773
relative viability ([4]; first compound 0.1 µM): 0.68
relative viability ([4]; first compound 0.3162 µM): 0.644
relative viability ([4]; first compound 1 µM): 0.771

BEN
relative viability ([1]; first compound 0.01 µM): 0.486
relative viability ([1]; first compound 0.03162 µM): 0.611
relative viability ([1]; first compound 0.1 µM): 0.282
relative viability ([1]; first compound 0.3162 µM): 0.158
relative viability ([1]; first compound 1 µM): 0.217
relative viability ([2]; first compound 0.01 µM): 0.67
relative viability ([2]; first compound 0.03162 µM): 0.711
relative viability ([2]; first compound 0.1 µM): 0.521
relative viability ([2]; first compound 0.3162 µM): 0.419
relative viability ([2]; first compound 1 µM): 0.396
relative viability ([3]; first compound 0.01 µM): 0.631
relative viability ([3]; first compound 0.03162 µM): 0.578
relative viability ([3]; first compound 0.1 µM): 0.479
relative viability ([3]; first compound 0.3162 µM): 0.228
relative viability ([3]; first compound 1 µM): 0.235
relative viability ([4]; first compound 0.01 µM): 0.285
relative viability ([4]; first compound 0.03162 µM): 0.292
relative viability ([4]; first compound 0.1 µM): 0.273
relative viability ([4]; first compound 0.3162 µM): 0.295
relative viability ([4]; first compound 1 µM): 0.318

LK-2
relative viability ([1]; first compound 0.01 µM): 0.184
relative viability ([1]; first compound 0.03162 µM): 0.176
relative viability ([1]; first compound 0.1 µM): 0.155
relative viability ([1]; first compound 0.3162 µM): 0.177
relative viability ([1]; first compound 1 µM): 0.176
relative viability ([2]; first compound 0.01 µM): 0.463
relative viability ([2]; first compound 0.03162 µM): 0.5
relative viability ([2]; first compound 0.1 µM): 0.121
relative viability ([2]; first compound 0.3162 µM): 0.0816
relative viability ([2]; first compound 1 µM): 0.091
relative viability ([3]; first compound 0.01 µM): 0.883
relative viability ([3]; first compound 0.03162 µM): 0.81
relative viability ([3]; first compound 0.1 µM): 0.336
relative viability ([3]; first compound 0.3162 µM): 0.163
relative viability ([3]; first compound 1 µM): 0.199
relative viability ([4]; first compound 0.01 µM): 0.157
relative viability ([4]; first compound 0.03162 µM): 0.227
relative viability ([4]; first compound 0.1 µM): 0.206
relative viability ([4]; first compound 0.3162 µM): 0.201
relative viability ([4]; first compound 1 µM): 0.233
